Data reported in US9932314B2, “Pyrazole compounds and their use as T-type calcium channel blockers” (IDORSIA PHARMACEUTICALS LTD, priority 2015, dated 2018).

Target: T1, voltage-dependent T-type calcium channel subunit alpha-1G (Cav3.2) (Homo sapiens, UniProt O95180)
T1 construct: expressed in transfected cells; host or cells: HEK293
Assay: FLIPR calcium flux assay, HEK293 cells recombinantly expressing Cav3.2
Format: cell-based
Settings: Cav3.2-channel, Fluo-4-AM, 3 min incubation, stimulation with 10 mM CaCl2
Experimental: In Vitro Methods—Measurement of Calcium Channel Flux by Means of FLIPR Assays.
HEK293 cells recombinantly expressing either voltage-dependent T-type calcium channel subunit […] (Cav3.2) or voltage-dependent L-type calcium channel subunit alpha-1C (Cav1.2) are assayed for calcium flux using the calcium indicator dye Fluo-4-AM (Molecular Devices) and FLIPR technology (Fluorometric Imaging Plate Reader, Molecular Devices) (Xie X, Van Deusen A L, Vitko I, Babu D A, Davies L A, Huynh N, Cheng H, Yang N, Barrett P Q, Perez-Reyes E. Validation of high throughput screening assays against three subtypes of Ca(v)3 T-type channels using molecular and pharmacologic approaches. Assay and Drug Development Technologies 2007, 5(2), 191-203). The HEK293 cells recombinantly expressing Cav3.2 are maintained in DMEM growth medium (Life Technologies) supplemented with 10% Fetal Bovine Serum (FBS), 100 U/ml penicilin (Life Technologies), 100 μg/ml streptomycin (Life Technologies) and 1 mg/ml G418 (Life Technologies). HEK293 cells recombinantly expressing Cav1.2 are maintained in DMEM growth medium (Life technologies) supplemented with 10% FBS, 0.1 mg/ml G418 (Life Technologies), 0.1 mg/ml hygromycin (Life Technologies) and 40 ug/ml zeocin (Life Technologies).
The seeded plates are incubated overnight at 37° C.
The cells are then washed three times with assay buffer (HBSS 1×; 0.375 g/L NaHCO3; 20 mM Hepes; 1% FBS; pH 7.4) and allowed to rest in 50 μl of wash buffer for 30 minutes.
Stock solutions of test compounds are prepared to a concentration of 10 mM in DMSO. For the Cav3.2 assay, serial dilutions of the compounds are prepared in TEAC buffer (100 mM tetraethylammonium chloride; 20 mM Hepes; 2.5 mM CaCl2; 5 mM KCl; 1 mM MgCl2; 1% FBS; pH 7.2), for the Cav1.2 assay serial dilutions are prepared in assay buffer. […] The compounds are incubated with the cells for 3 minutes and Ca2+ entry is stimulated by adding either CaCl2 to a final concentration of 10 mM (Cav3.2 assay) or by adding KCl to a final concentration of 20 mM (Cav1.2 assay). The kinetics of fluorescence increase are recorded for every well and the area under the fluorescence trace for every compound concentration is used to generate inhibition curves using non-linear regression sigmoidal concentration-response curve analysis with in-house software.

T1 sequence (O95180 whole entry): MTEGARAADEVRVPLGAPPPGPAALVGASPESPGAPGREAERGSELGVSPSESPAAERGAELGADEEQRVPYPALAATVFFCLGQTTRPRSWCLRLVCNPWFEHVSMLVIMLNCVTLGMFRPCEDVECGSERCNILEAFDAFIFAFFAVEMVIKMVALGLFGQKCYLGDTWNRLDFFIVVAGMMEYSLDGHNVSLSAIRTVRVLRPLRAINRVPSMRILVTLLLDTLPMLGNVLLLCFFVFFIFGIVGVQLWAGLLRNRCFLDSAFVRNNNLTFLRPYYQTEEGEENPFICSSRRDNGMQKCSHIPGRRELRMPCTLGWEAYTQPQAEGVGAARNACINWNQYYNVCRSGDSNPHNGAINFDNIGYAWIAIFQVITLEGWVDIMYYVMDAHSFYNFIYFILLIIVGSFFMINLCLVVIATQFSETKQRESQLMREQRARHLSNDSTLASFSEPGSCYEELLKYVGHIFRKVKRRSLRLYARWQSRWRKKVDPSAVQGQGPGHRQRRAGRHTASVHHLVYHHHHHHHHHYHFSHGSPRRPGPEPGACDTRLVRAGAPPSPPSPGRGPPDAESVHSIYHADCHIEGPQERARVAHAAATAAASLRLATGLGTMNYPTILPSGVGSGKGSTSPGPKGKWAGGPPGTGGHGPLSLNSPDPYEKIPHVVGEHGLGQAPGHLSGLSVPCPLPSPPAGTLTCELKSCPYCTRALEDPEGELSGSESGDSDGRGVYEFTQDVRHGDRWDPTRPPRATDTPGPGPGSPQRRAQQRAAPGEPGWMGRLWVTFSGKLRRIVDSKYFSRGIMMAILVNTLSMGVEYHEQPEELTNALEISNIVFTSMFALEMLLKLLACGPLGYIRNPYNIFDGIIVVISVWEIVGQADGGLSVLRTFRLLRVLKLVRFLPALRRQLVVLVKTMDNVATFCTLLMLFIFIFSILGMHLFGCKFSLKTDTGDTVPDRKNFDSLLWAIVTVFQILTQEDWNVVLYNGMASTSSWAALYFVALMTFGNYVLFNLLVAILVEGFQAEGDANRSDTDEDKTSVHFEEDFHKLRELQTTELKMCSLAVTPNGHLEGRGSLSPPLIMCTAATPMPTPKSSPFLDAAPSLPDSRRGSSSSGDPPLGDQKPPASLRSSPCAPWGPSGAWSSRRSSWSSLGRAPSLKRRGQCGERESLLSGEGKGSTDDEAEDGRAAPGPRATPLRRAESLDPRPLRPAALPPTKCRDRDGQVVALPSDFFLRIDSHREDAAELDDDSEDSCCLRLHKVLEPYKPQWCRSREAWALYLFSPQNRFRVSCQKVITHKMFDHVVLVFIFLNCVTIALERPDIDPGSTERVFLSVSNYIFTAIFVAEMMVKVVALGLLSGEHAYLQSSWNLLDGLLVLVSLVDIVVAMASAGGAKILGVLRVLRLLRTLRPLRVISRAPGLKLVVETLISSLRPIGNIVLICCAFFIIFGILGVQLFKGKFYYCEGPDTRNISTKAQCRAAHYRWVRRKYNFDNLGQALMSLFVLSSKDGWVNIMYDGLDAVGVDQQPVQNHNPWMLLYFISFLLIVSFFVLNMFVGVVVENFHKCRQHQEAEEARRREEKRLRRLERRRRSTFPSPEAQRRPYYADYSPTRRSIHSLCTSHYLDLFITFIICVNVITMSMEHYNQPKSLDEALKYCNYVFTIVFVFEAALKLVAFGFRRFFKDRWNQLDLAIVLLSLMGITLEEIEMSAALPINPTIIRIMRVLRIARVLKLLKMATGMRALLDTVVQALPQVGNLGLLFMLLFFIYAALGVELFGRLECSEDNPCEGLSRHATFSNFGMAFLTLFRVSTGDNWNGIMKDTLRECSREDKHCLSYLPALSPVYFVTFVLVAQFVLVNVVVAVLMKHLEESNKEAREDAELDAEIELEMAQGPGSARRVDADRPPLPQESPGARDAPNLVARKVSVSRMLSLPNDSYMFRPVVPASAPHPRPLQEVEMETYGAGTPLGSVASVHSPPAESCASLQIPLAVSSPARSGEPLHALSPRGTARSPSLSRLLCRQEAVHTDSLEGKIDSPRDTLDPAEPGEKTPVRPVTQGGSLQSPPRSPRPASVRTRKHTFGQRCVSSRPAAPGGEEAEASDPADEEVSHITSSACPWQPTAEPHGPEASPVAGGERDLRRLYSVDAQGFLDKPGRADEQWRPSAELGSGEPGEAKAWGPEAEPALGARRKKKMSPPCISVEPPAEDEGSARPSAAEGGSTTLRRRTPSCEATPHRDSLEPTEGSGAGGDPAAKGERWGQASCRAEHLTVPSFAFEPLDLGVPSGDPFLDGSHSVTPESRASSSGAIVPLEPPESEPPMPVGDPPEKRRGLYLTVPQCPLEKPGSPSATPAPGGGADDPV

| Compound | IC50 [µM] |
| --- | --- |
| N#Cc1cc(Cn2ccc(NC(=O)Cc3cnc(N4CCCC4)c(F)c3)n2)ccc1F [Example 340, N-[1-(3-Cyano-4-fluoro-benzyl)-1H-pyrazol-3-yl]-2-(5-fluoro-6-pyrrolidin-1-yl-pyridin-3-yl)-acetamide] | 0.0085 |
| CC(C)c1ccc(CC(=O)Nc2ccn(Cc3cc(F)c(C#N)c(F)c3)n2)cc1 [Example 353, N-[1-(4-Cyano-3,5-difluoro-benzyl)-1H-pyrazol-3-yl]-2-(4-isopropyl-phenyl)-acetamide] | 0.03 |
| N#Cc1ccc(Cn2ccc(NC(=O)Cc3ccc(OCC4CC(F)(F)C4)cc3)n2)nc1 [Example 304, N-[1-(5-Cyano-pyridin-2-ylmethyl)-1H-pyrazol-3yl]-2-[4-(3,3-difluoro-cyclobutylmethoxy)-phenyl]-acetamide] | 0.118 |
| Cn1ccc2ccc(CC(=O)Nc3ccn(Cc4ccc(F)c(F)c4)n3)cc21 [Example 221, N-[1-(3,4-Difluoro-benzyl)-1H-pyrazol-3-yl]-2-(1-methyl-1H-indol-6-yl)-acetamide] | 0.005 |
| O=C(Cc1ccc(N2CC[C@H](F)C2)nc1)Nc1ccn(Cc2ccc(F)cc2)n1 [Example 155, N-[1-(4-Fluoro-benzyl)-1H-pyrazol-3-yl]-2-[6((S)-3-fluoro-pyrrolidin-1-yl)-pyridin-3-yl]-acetamide] | 0.07 |
| CN(CC1CC1)c1ccc(CC(=O)Nc2ccn(Cc3ccc(F)c(F)c3)n2)cn1 [Example 185, 2-[6-(Cyclopropylmethyl-methyl-amino)-pyridin-3-yl]-N-[1-(3,4-difluoro-benzyl)-1H-pyrazol-3-yl]-acetamide] | 0.0077 |
| N#Cc1ccc(Cn2ccc(NC(=O)Cc3ccc(OCC(F)(F)F)c(C4CC4)c3)n2)nc1 [Example 406, N-[1-(5-Cyano-pyridin-2-ylmethyl)-1H-pyrazol-3-yl]-2-[3-cyclopropyl-4-(2,2,2-trifluoro-ethoxy)-phenyl]-acetamide] | 0.015 |
| COc1ccc(Cn2ccc(NC(=O)Cc3ccc(OC4CC4)cc3)n2)cc1 [Example 65, 2-(4-Cyclopropoxy-phenyl)-N-[1-(4-methoxy-benzyl)-1H-pyrazol-3-yl]-acetamide] | 0.074 |
| N#Cc1ccc(Cn2ccc(NC(=O)Cc3ccc(C4CC4)nc3)n2)cc1F [Example 216, N-[1-(4-Cyano-3-fluoro-benzyl)-1H-pyrazol-3-yl]-2-(6-cyclopropyl-pyridin-3-yl)-acetamide] | 0.269 |
| Cn1ncc2ccc(CC(=O)Nc3ccn(Cc4ccc(F)c(F)c4)n3)cc21 [Example 224, N-[1-(3,4-Difluoro-benzyl)-1H-pyrazol-3-yl]-2-(1-methyl-1H-indazol-6-yl)-acetamide] | 0.021 |
| N#Cc1ccc(Cn2ccc(NC(=O)Cc3ccc(OC4COC4)cc3)n2)nc1 [Example 247, N-[1-(5-Cyano-pyridin-2-ylmethyl)-1H-pyrazol-3-yl]-2-[4-(oxetan-3-yloxy)-phenyl]-acetamide] | 2.59 |
| CC1(c2ccc(CC(=O)Nc3ccn(Cc4ccc(C#N)cc4)n3)cc2)COC1 [Example 317, N-[1-(4-Cyano-benzyl)-1H-pyrazol-3-yl]-2-[4-(3-methyl-oxetan-3-yl)-phenyl]-acetamide] | 0.056 |
| Cc1cc(CC(=O)Nc2ccn(Cc3ccc(F)c(C#N)n3)n2)ccc1OCC(F)(F)F [Example 391, N-[1-(6-Cyano-5-fluoro-pyridin-2-ylmethyl)-1H-pyrazol-3-yl]-2-[3-methyl-4-(2,2,2-trifluoro-ethoxy)-phenyl]-acetamide] | 0.0021 |
| N#Cc1nc(Cn2ccc(NC(=O)Cc3ccc(C4(C(F)(F)F)CC4)cc3)n2)ccc1F [Example 365, N-[1-(6-Cyano-5-fluoro-pyridin-2-ylmethyl)-1H-pyrazol-3-yl]-2-[4-(1-trifluoromethyl-cyclopropyl)-phenyl]-acetamide] | 0.018 |
| O=C(Cc1ccc(OCC(F)(F)F)cc1)Nc1ccn(Cc2ccc(F)cc2)n1 [Example 46, N-[1-(4-Fluoro-benzyl)-1H-pyrazol-3-yl]-2-[4-(2,2,2-trifluoro-ethoxy)-phenyl]-acetamide] | 0.026 |
| CCN(CC)c1ccc(CC(=O)Nc2ccn(Cc3ccc(F)c(F)c3)n2)cn1 [Example 124, 2-(6-Diethylamino-pyridin-3-yl)-N-[1-(3,4-difluoro-benzyl)-1H-pyrazol-3-yl]-acetamide] | 0.0099 |

| Compound | IC50 [µM] |
| --- | --- |
| Cc1cc(Cn2ccc(NC(=O)Cc3ccc(N(C)C)cc3)n2)ccc1F [Example 30, 2-(4-Dimethylamino-phenyl)-N-[1-(4-fluoro-3-methyl-benzyl)-1H-pyrazol-3-yl]-acetamide] | 0.0086 |
| CC(C)(C)c1ccc(CC(=O)Nc2ccn(Cc3ccc(F)c(C#N)c3)n2)cc1 [Example 283, 2-(4-tert-Butyl-phenyl)-N-[1-(3-cyano-4-fluoro-benzyl)-1H-pyrazol-3-yl]-acetamide] | 0.0095 |
| N#Cc1ccc(Cn2ccc(NC(=O)Cc3ccc(S(F)(F)(F)(F)F)cc3)n2)nc1 [Example 336, N-(1-((5-cyanopyridin-2-yl)methyl)-1H-pyrazo1-3-yl)-2-(4-(pentafluoro-λ^6-sulfanyl)phenyl)acetamide] | 0.034 |
| CC(C)c1ccc(CC(=O)Nc2ccn(Cc3ccc(C#N)cc3)n2)cc1 [Example 11, N-[1-(4-Cyano-benzyl)-1H-pyrazol-3-yl]-2-(4-isopropyl-phenyl)-acetamide] | 0.0054 |
| N#Cc1ccc(Cn2ccc(NC(=O)Cc3ccc(OC4CC(F)(F)C4)cc3)n2)nc1 [Example 274, N-[1-(5-Cyano-pyridin-2-ylmethyl)-1H-pyrazol-3-yl]-2-[4-(3,3-difluoro-cyclobutoxy)-phenyl]-acetamide] | 0.133 |
| O=C(Cc1cnc(OCC(F)(F)F)c(F)c1)Nc1ccn(Cc2ccc(F)c(F)c2)n1 [Example 95, N-[1-(3,4-Difluoro-benzyl)-1H-pyrazol-3-yl]-2-[5-fluoro-6-(2,2,2-trifluoro-ethoxy)-pyridin-3-yl]-acetamide] | 0.099 |
| N#Cc1ccc(Cn2ccc(NC(=O)Cc3ccc(N4CCCC4)nc3)n2)cc1 [Example 176, N-[1-(4-Cyano-benzyl)-1H-pyrazol-3-yl]-2-(6-pyrrolidin-1-yl-pyridin-3-yl)-acetamide] | 0.067 |
| O=C(Cc1ccc(N2CC[C@@H](F)C2)cc1)Nc1ccn(Cc2ccc(F)cc2)n1 [Example 70, N-[1-(4-Fluoro-benzyl)-1H-pyrazol-3-yl]-2-[4-((R)-3-fluoro-pyrrolidin-1-yl)-phenyl]-acetamide] | 0.011 |
| N#Cc1ccc(Cn2ccc(NC(=O)Cc3ccc(C4CC(F)(F)C4)cc3)n2)cc1 [Example 300, N-[1-(4-Cyano-benzyl)-1H-pyrazol-3-yl]-2-[4-(3,3-difluoro-cyclobutyl)-phenyl]-acetamide] | 0.0075 |
| CC1COc2cc(CC(=O)Nc3ccn(Cc4ccc(C#N)cn4)n3)ccc2C1 (racemic) [Example 388, rac-N-[1-(5-Cyano-pyridin-2-ylmethyl)-1H-pyrazol-3-yl]-2-(3-methyl-chroman-7-yl)-acetamide] | 0.03 |
| COc1ccc(Cn2ccc(NC(=O)Cc3ccc(N4CC(F)(F)C4)nc3)n2)cc1 [Example 146, 2-[6-(3,3-Difluoro-azetidin-1-yl)-pyridin-3-yl]-N-[1-(4-methoxy-benzyl)-1H-pyrazol-3-yl]-acetamide] | 0.136 |
| Cc1cc(CC(=O)Nc2ccn(Cc3ccc(C)c(C#N)n3)n2)ccc1OCC(F)(F)F [Example 367, N-[1-(6-Cyano-5-methyl-pyridin-2-ylmethyl)-1H-pyrazol-3-yl]-2-[3-methyl-4-(2,2,2-trifluoro-ethoxy)-phenyl]-acetamide] | 0.01 |
| Cc1ccc(Cn2ccc(NC(=O)Cc3ccc(N4CCC(F)(F)C4)nc3)n2)nc1C#N [Example 366, N-[1-(6-Cyano-5-methyl-pyridin-2-ylmethyl)-1H-pyrazol-3-yl]-2-[6-(3,3-difluoro-pyrrolidin-1-yl)-pyridin-3-yl]-acetamide] | 0.147 |
| COCCN(C)c1ccc(CC(=O)Nc2ccn(Cc3ccc(OC)cc3)n2)cc1 [Example 125, N-[1-(4-Methoxy-benzyl)-1H-pyrazol-3-yl]-2-{4-[(2-methoxy-ethyl)-methyl-amino]-phenyl}-acetamide] | 0.064 |
| COCCN(C)c1ccc(CC(=O)Nc2ccn(Cc3ccc(C#N)cn3)n2)cn1 [Example 179, N-[1-(5-Cyano-pyridin-2-ylmethyl)-1H-pyrazol-3-yl]-2-{6-[(2-methoxy-ethyl)-methyl-amino]-pyridin-3-yl}-acetamide] | 2.5 |
